# In patent US4996227A, “3-(heteroarylalkyene)- and 3-(arylalkylene)-2,4(3H,5H)-heterocyclic diones as cancer chemotherapy drugs” (priority 1989, dated 1991):
# Experiments:
# healthy mice = experiment: Toxicology testing in healthy mice: hematology; format: in vivo; details: for Absolute Neutrophils / Hemoglobin / WBC: i.p.
# Method: The purpose of this example was to determine approximate toxicity of the compound 3[(5-methyl-2-thienyl) methylene]-2,4(3H,5H)-furandione in healthy mice. The in vivo concentrations employed in the example were selected by using the in vitro results in the Human Tumor Stem Cell Assay as a guide. The compound was given to the mice by means of intra-peritoneal injection. In addition to a control group which was injected with the appropriate carrier solution without drug, three test groups with calculated plasma concentrations of 1, 10 and 100 mcg/ml (low, medium and high concentrations) were prepared. Based upon the results from Table 1, the three test groups represent low, medium and high concentrations of drug dosages. The highest concentration of 100 mcg/ml is about 10 times the predicted effective dose (in vivo) of tumoricidal activity. Each group contained eight animals. Blood was extracted from four animals in each group two days after the intraperitoneal injection and routine hematology (i.e., a hemoglobin concentration, a white blood cell count, and a neutrophil count) procedures were performed.
# Half of the animals in each group were sacrificed after one week (Day 7), and the remaining animals in each group were sacrificed after two weeks (Day 14). Routine hematology was performed at the time of sacrifice.
# human tumor H5319 BREAST = experiment: Human Tumor Stem Cell Assay, colony growth after one hour exposure; format: cell-based; details: 1 h
# From the text: (§1) The in vitro Human Tumor Stem Cell Assay procedure described as follows has several advantages for testing the effectiveness of chemotherapy drugs such as the 3-(heteroarylalkylene)-2,4(3H,5H)-furandiones. The first advantage is that fresh tumor cells from a variety of tumor types were used rather than a small number of cell lines which have undergone severe selection pressures as they are passed in vitro. The second advantage is that only the anchorage-independent tumor cells will form colonies in soft agar so that any non-malignant cells present in the sample will not form colonies. Perhaps the most important advantage, however, is the emphasis on cells which have the ability to form colonies. These cells, which are generally called stem cells, usually comprise only a small percentage of all tumor cells. They are thought to be the most important cells for growth and distant spread of a tumor. In particular, these cells have the potential to leave the primary tumor and form new tumors at distant sites (called metastases). It is the effectiveness against these very important stem cells that the Human Tumor Stem Cell Assay measures.
# (§2) One of the 3-(heteroarylalkylene)-2,4(3H,5H)-furandione compounds, 3-[(5-methyl-2-thienyl) methylene]-2,4(3H,5H)-furandione was evaluated against a series of 10 human tumors in the in vitro Human Tumor Cell Assay, along with conventional and standard chemotherapy agents.
# (§3) In the procedure, a single cell suspension was prepared from tumors excised from patients during therapeutic or diagnostic surgical procedures. The human tumor cells were exposed to known anticancer drugs or to [(5-methyl-2-thienyl)methylene]-2,4 (3H, 5H)-furandione at a low (0.2 mcg/ml) or a high (1.0 mcg/ml) concentration for one hour. […] The suspension was washed with tissue culture medium to remove the drug.
# (§4) The suspension was then cultured in a double soft agar suspension. Control cells which had been treated identically, except for exposure to the drugs, were also cultured. After one to two weeks, both the tumor cells and the control cells formed colonies in the soft agar which were enumerated under a microscope. The number of colonies grown from the drug-treated cells was compared to the number of colonies grown from the control cells, and the percentage growth after exposure to the drug was calculated.
# (§5) The results are illustrated in Table 1, wherein the various numbers indicate the percentage of growth. For example, a small number like 6 means that the number of colonies is only 6% of the number without addition of the compound. On the other hand, a large number like 120 means that the number of colonies is 20% greater with the compound than without.
# (§6) Of the nine tumors for which the higher concentration (1.0 mcg/ml) of the furandione was used, five gave inhibition of colony growth corresponding to borderline sensitive (30-50% growth) and four gave inhibition corresponding to sensitivity (0-30% growth). Clinical drugs are normally tested at 10% of their peak plasma concentration. For the standard chemotherapy drugs shown in Table 1, the low concentration (LO) corresponds to this 10% level, and the high concentration (HI) is at 50% of the peak plasma concentration. Of the same nine tumors, only two would have been rated as sensitive or borderline sensitive to any of the other clinical drugs tested.
# [1] = system: human tumor H5322 STOMACH; experiment: as above; format: cell-based; details: 1 h
# From the text: as §1, §2, §3, §4, §5, §6
# human tumor H5331 OVARY = experiment: as above; format: cell-based; details: 1 h
# From the text: as §1, §2, §3, §4, §5, §6
# human tumor H5337 COLON = experiment: as above; format: cell-based; details: 1 h
# From the text: as §1, §2, §3, §4, §5, §6
# human tumor H5330 THYMUS = experiment: as above; format: cell-based; details: 1 h
# From the text: as §1, §2, §3, §4, §5, §6
# human tumor H5315 BREAST = experiment: as above; format: cell-based; details: LO: furandione 0.2 mcg/ml; standard drugs 10% of peak plasma concentration; 1 h
# From the text: as §1, §2, §3, §4, §5, §6
# human tumor H5349 BREAST = experiment: as above; format: cell-based; details: 1 h
# From the text: as §1, §2, §3, §4, §5, §6
# human tumor H5340 ** = experiment: as above; format: cell-based; details: 1 h
# From the text: as §1, §2, §3, §4, §5, §6
# human tumor H5318 OVARY = experiment: as above; format: cell-based; details: HI: furandione 1.0 mcg/ml; standard drugs 50% of peak plasma concentration; 1 h
# From the text: as §1, §2, §3, §4, §5, §6
# [2] = system: human tumor H5325 SARCOMA; experiment: as above; format: cell-based; details: 1 h
# From the text: as §1, §2, §3, §4, §5, §6
# [3] = high, 100 mcg/ml calculated plasma, Day 2
# [4] = high, 100 mcg/ml calculated plasma, Day 7
# [5] = high, 100 mcg/ml calculated plasma, Day 14
# [6] = low, 1 mcg/ml calculated plasma, Day 2
# [7] = low, 1 mcg/ml calculated plasma, Day 7
# [8] = low, 1 mcg/ml calculated plasma, Day 14
# [9] = medium, 10 mcg/ml calculated plasma, Day 2
# [10] = medium, 10 mcg/ml calculated plasma, Day 7
# [11] = medium, 10 mcg/ml calculated plasma, Day 14
# [12] = HI: furandione 1.0 mcg/ml, standard drugs 50% of peak plasma concentration
# [13] = LO: furandione 0.2 mcg/ml, standard drugs 10% of peak plasma concentration
smiles,measurement,setting,value
"Cc1ccc(C=C2C(=O)COC2=O)s1 [Compound 4, 3[(5-methyl-2-thienyl)methylene]2,4(3H,5H)-furandione]","absolute neutrophil count, change",healthy mice; after one week,"significant decrease in the absolute neutrophil count after one week, indicating suppression of bone marrow"
same,"total white blood cell count, change",healthy mice; all groups,"slightly decreased from Day 2 to Day 7, the count increased in all groups from Day 7 to Day 14"
same,"hemoglobin levels, change","healthy mice; all test groups, 14-day test period",no significant decreases in hemoglobin levels
same,myelosuppression in vivo,healthy mice; at drug level predicted by the in vitro assay,some myelosuppression in vivo
same,"platelet count, change",healthy mice; blood smears,platelet count was not significantly decreased
same,Absolute Neutrophils,healthy mice; [3],5224 cells/ul
same,Hemoglobin,healthy mice; [3],13.2 g/100 ml
same,WBC,healthy mice; [3],9594 Cells/ul
same,Hemoglobin,healthy mice; [4],13.6 g/100 ml
same,WBC,healthy mice; [4],5775 Cells/ul
same,Absolute Neutrophils,"healthy mice; high, 100 mcg/ml calculated plasma, Day 7 (text SD=622), 4 (3H, 5H) FURANDIONE",1167 cells/ul
same,Absolute Neutrophils,"healthy mice; high, 100 mcg/ml calculated plasma, Day 7 (text SD=622), listed as tested furandione compound","1,167 cells/ul"
same,Absolute Neutrophils,healthy mice; [5],2025 cells/ul
same,Hemoglobin,healthy mice; [5],13.9 g/100 ml
same,WBC,healthy mice; [5],"12,175 Cells/ul"
same,Absolute Neutrophils,healthy mice; [6],2869 cells/ul
same,Hemoglobin,healthy mice; [6],13.7 g/100 ml
same,WBC,healthy mice; [6],7000 Cells/ul
same,Hemoglobin,healthy mice; [7],14.25 g/100 ml
same,WBC,healthy mice; [7],6562 Cells/ul
same,Absolute Neutrophils,"healthy mice; low, 1 mcg/ml calculated plasma, Day 7 (text SD=942), 4 (3H, 5H) FURANDIONE",1731 cells/ul
same,Absolute Neutrophils,"healthy mice; low, 1 mcg/ml calculated plasma, Day 7 (text SD=942), listed as tested furandione compound","1,731 cells/ul"
same,Hemoglobin,healthy mice; [8],13.6 g/100 ml
same,WBC,healthy mice; [8],9675 Cells/ul
same,Absolute Neutrophils,"healthy mice; low, 1 mcg/ml calculated plasma, Day 14, three animals",2183 cells/ul
same,neutrophil difference vs control,"healthy mice; low, 1 mcg/ml, Day 7",no significant difference between the control and the low concentration group
same,Absolute Neutrophils,healthy mice; [9],3946 cells/ul
same,Hemoglobin,healthy mice; [9],13.6 g/100 ml
same,WBC,healthy mice; [9],7787 Cells/ul
same,Hemoglobin,healthy mice; [10],13.9 g/100 ml
same,WBC,healthy mice; [10],5812 Cells/ul
same,Absolute Neutrophils,"healthy mice; medium, 10 mcg/ml calculated plasma, Day 7 (text SD=492), 4 (3H, 5H) FURANDIONE",1009 cells/ul
same,Absolute Neutrophils,"healthy mice; medium, 10 mcg/ml calculated plasma, Day 7 (text SD=492), listed as tested furandione compound","1,009 cells/ul"
same,Hemoglobin,healthy mice; [11],13.6 g/100 ml
same,WBC,healthy mice; [11],8700 Cells/ul
same,Absolute Neutrophils,"healthy mice; medium, 10 mcg/ml calculated plasma, Day 14, three animals",1256 cells/ul
same,"P, neutrophil difference vs control","healthy mice; medium, 10 mcg/ml, Day 7",< 0.05
same,percentage of growth (colonies vs control),human tumor H5319 BREAST; [12],6%
same,percentage of growth (colonies vs control),human tumor H5319 BREAST; [13],210%
same,percentage of growth (colonies vs control),[1]; [12],36%
same,percentage of growth (colonies vs control),[1]; [13],68%
same,percentage of growth (colonies vs control),human tumor H5331 OVARY; [12],48%
same,percentage of growth (colonies vs control),human tumor H5331 OVARY; [13],64%
same,percentage of growth (colonies vs control),human tumor H5337 COLON; [12],36%
same,percentage of growth (colonies vs control),human tumor H5337 COLON; [13],58%
same,percentage of growth (colonies vs control),human tumor H5330 THYMUS; [12],38%
same,percentage of growth (colonies vs control),human tumor H5330 THYMUS; [13],79%
same,percentage of growth (colonies vs control),human tumor H5315 BREAST,62%
same,percentage of growth (colonies vs control),human tumor H5349 BREAST; [12],9%
same,percentage of growth (colonies vs control),human tumor H5349 BREAST; [13],82%
same,percentage of growth (colonies vs control),human tumor H5340 **; [12],50%
same,percentage of growth (colonies vs control),human tumor H5340 **; [13],62%
same,percentage of growth (colonies vs control),human tumor H5318 OVARY,29%
same,percentage of growth (colonies vs control),[2]; [12],22%
same,percentage of growth (colonies vs control),[2]; [13],44%
